This is an account of results in paper PMC6133161, “Thiazoles with cyclopropyl fragment as antifungal, anticonvulsant, and anti-Toxoplasma gondii agents: synthesis, toxicity evaluation, and molecular docking study” (Medicinal Chemistry Research, 2018).

Converted amounts (≈) assume the structure as drawn. Where two headings read alike, the source gives them in different places.

Data set [1] has as its system Candida albicans ATCC 2091. The data set can be described thus: Broth microdilution MIC/MFC, reference strain. Particulars: C. albicans ATCC 2091. Type of data set: cell-based. From the text:
(§1) The examined compounds 3a–3j were screened in vitro for antibacterial and antifungal activities using the broth microdilution method according to European Committee on Antimicrobial Susceptibility Testing (EUCAST) (EUCAST [2003]) and Clinical and Laboratory Standards Institute guidelines (CLSI [2012]) against reference strains of microorganisms from American Type Culture Collection (ATCC), including fungi belonging to yeasts (Candida albicans ATCC 2091, Candida albicans ATCC 10231, Candida parapsilosis ATCC 22019 and Candida krusei ATCC 14243).
(§2) In the study of antifungal activity of the compounds 3a–3j, 15 clinical strains of different species of yeasts from Candida species, namely C. albicans, C. dubliniensis C. famata, C. inconspicua, C. krusei, C. tropicalis, C. glabrata, C. lambica, C. kefyr, C. lusitaniae, C. parapsilosis, C. guilliermondii, C. lusitaniae, C. pulcherrima and C. sake were also used. These fungi were isolated by the author (from Department of Pharmaceutical Microbiology of Medical University in Lublin, Poland) from different clinical materials, e.g., from upper respiratory tract of hospitalized patients including cancer patients (i.e., with non-small cell lung cancer or hematological malignancies). Some patients were after pre-operative or post-operative chemotherapy (treated with etoposide or cis-platin given in doses according to the standard procedures), patients with chronic hepatitis C (undergoing peginterferon and ribavirin therapy or without antiviral therapy), patients with diabetes, elderly people, aged of 65 years old or older, staying in close population, such as a care centre and people staying outside the home care. The Ethical Committee of the Medical University of Lublin approved the study protocol (No. KE-0254/75/2011). The isolates were identified by standard diagnostic methods—biochemical microtest, e.g., API 20C AUX, ID 32C, API Candida (bioMérieux) on the basis of assimilation of various substrates. All the used microbial cultures were first subcultured on nutrient agar or Sabouraud agar for bacteria and fungi, respectively. The RPMI 1640 with MOPS (for fungi) were inoculated with the suspensions of fungal species. Microbial suspensions were prepared in sterile saline (0.85% NaCl) with an optical density of 0.5 McFarland standard scale (Wiegand et al. [2008]). Samples containing examined compounds were dissolved in dimethyl sulfoxide (DMSO). Furthermore, fungal suspensions were put onto Petri dishes with solid media containing 2 mg/ml of the tested compounds followed incubation under appropriate conditions. The inhibition of microbial growth was judged by comparison with a control culture prepared without any sample tested. Nystatin (Sigma) was used as a reference antifungal compound. Subsequently MIC minimal inhibitory concentration (MIC) of the compounds was examined by the microdilution broth method, using their two-fold dilutions in RPMI 1640 broth with MOPS prepared in 96-well polystyrene plates. Final concentrations of the compounds ranged from 1000 to 0.0038 µg/ml. Microbial suspensions were prepared in sterile saline with an optical density of 0.5 McFarland standard. Next fungal suspension was added per each well containing broth and various concentrations of the examined compounds. After incubation, the MIC was assessed spectrophotometric as the lowest concentration of the samples showing complete fungal growth inhibition. Appropriate DMSO, growth and sterile controls were carried out. The medium with no tested substances was used as a control (Wiegand et al. [2008]). The minimal fungicidal concentration (MFC) are defined as the lowest concentration of the compounds that is required to kill a particular fungal species. MFC was determined by removing the culture using for MIC determinations from each well and spotting onto appropriate agar medium. The plates were incubated. The lowest compounds concentration with no visible growth observed was assessed as a fungicidal concentration. […]
(Dilution methods test growth across graded concentrations, often in twofold steps.)

The subject of data set [2] is Candida parapsilosis ATCC 22019. The data set can be described thus: Broth microdilution MIC/MFC, reference strain. Type of data set: cell-based. Particulars: C. parapsilosis ATCC 22019.
Text: as §1, §2

Data set [3] concerns Candida krusei ATCC 14243. The data set can be described thus: Broth microdilution MIC/MFC, reference strain. The format is cell-based. Particulars: C. krusei ATCC 14243.
Text: as §1, §2

Data set [4] relates to Candida albicans ATCC 10231. The data set can be described thus: Broth microdilution MIC/MFC, reference strain. Type of data set: cell-based. The conditions noted are these: C. albicans ATCC 10231.
Text: as §1, §2

The test system of data set [5] is Toxoplasma gondii RH strain. The data set can be described thus: [3H]-uracil incorporation assay in VERO host cells. Particulars: Toxoplasma gondii, Vero.
The subject of the next data set is L929 and VERO cell lines. Put plainly: MTT cytotoxicity assay. Type of data set: cell-based, mouse; African green monkey. Particulars: 24 h, higher concentrations not reached due to limited solubility. For orientation: Formazan colour is commonly taken as a measure of viable cells.
Setting [6] is: Candida albicans, ATCC2091, read-out: MFC.
[7] abbreviates: Candida albicans, ATCC2091, read-out: MIC.
Where [8] appears, read: Lodderomyces parapsilosis, ATCC22019, read-out: MFC.
The mark [9] stands for this setting: Lodderomyces parapsilosis, ATCC22019, read-out: MIC.
Where [10] appears, read: Pichia kudriavzevii, ATCC14243, read-out: MFC.
Where [11] appears, read: Pichia kudriavzevii, ATCC14243, read-out: MIC.
Setting [12] is: Candida albicans, ATCC10231, read-out: MFC.
The mark [13] stands for this setting: Candida albicans, ATCC10231, read-out: MIC.
Where [14] appears, read: read-out: Proliferation of Toxoplasma gondii RH strain ± SD.

As to `Fc1ccc(-c2csc(N/N=C/C3CC3)n2)cc1` [Compound 3a, (E)-2-(2-(Cyclopropylmethylene)hydrazinyl)-4-(4-fluorophenyl)thiazole], in data set [1] (setting [6]), the minimum fungicidal concentration (MFC) is 3.91 µg/mL (≈ 15 µM). Moreover, in data set [1] (setting [7]), the minimal inhibitory concentration (MIC) was determined as 1.95 µg/mL (≈ 7.46 µM). Also, the minimum fungicidal concentration (MFC) in data set [2] (setting [8]) amounted to 3.91 µg/mL (≈ 15 µM). For the same molecule, the minimal inhibitory concentration (MIC) in data set [2] (setting [9]) came to 1.95 µg/mL (≈ 7.46 µM). Moreover, the minimal fungicidal concentration (MFC) in data set [3] (setting [10]) came to 15.6 µg/mL (≈ 59.8 µM). In data set [3] (setting [11]), the MIC was 3.91 µg/mL (≈ 15 µM). The MFC in data set [4] (setting [12]) worked out at 15.6 µg/mL (≈ 59.8 µM). Also, the minimum inhibitory concentration (MIC) in data set [4] (setting [13]) came out at 1.95 µg/mL (≈ 7.46 µM). Besides, the IC50 in data set [5] (read-out: IC50 anti-Tg) turned out to be 18.1 µg/mL (≈ 69.2 µM). In data set [5] (setting [14]), the activity at 0.98 µg/mL came out at 95.4 ± 2.41%, the activity at 1.95 µg/mL came to 97.9 ± 7.49%, the activity at 3.91 µg/mL came to 96.16 ± 0.61% and the activity at 7.81 µg/mL came out at 84.89 ± 0.78%. In addition, in data set [5] (setting [14]), the activity at 15.63 µg/mL amounted to 49.2 ± 3.59%, the activity at 20 µg/mL was determined as 45.6 ± 5.64%, the activity at 25 µg/mL amounted to 42.2 ± 0.91% and the activity at 31.25 µg/mL was 28.2 ± 5.7%. In addition, the “highest possible non-cytotoxic concentration” value in the data set on L929 and VERO cell lines is 31.25 µg/mL.

Consider `Brc1ccc(-c2csc(N/N=C/C3CC3)n2)cc1` [Compound 3b, (E)-4-(4-Bromophenyl)-2-(2-(cyclopropylmethylene)hydrazinyl)thiazole], for which the minimal fungicidal concentration (MFC) was 0.98 µg/mL (≈ 3.04 µM) in data set [1] (setting [6]), 1.95 µg/mL (≈ 6.05 µM) in data set [2] (setting [8]), 0.98 µg/mL (≈ 3.04 µM) in data set [3] (setting [10]) and 0.24 µg/mL (≈ 0.745 µM) in data set [4] (setting [12]). In addition, the MIC in data set [1] (setting [7]) is 0.12 µg/mL (≈ 0.372 µM); in data set [2] (setting [9]), 0.48 µg/mL (≈ 1.49 µM); in data set [3] (setting [11]), 0.24 µg/mL (≈ 0.745 µM); in data set [4] (setting [13]), 0.06 µg/mL (≈ 0.186 µM). In addition, the activity at 0.98 µg/mL in data set [5] (setting [14]) is 85.8 ± 10.6%. Also, the activity at 1.95 µg/mL in data set [5] (setting [14]) turned out to be 99.3 ± 6.08%. The activity at 3.91 µg/mL in data set [5] (setting [14]) worked out at 107 ± 10.2%. Further, the activity at 7.81 µg/mL in data set [5] (setting [14]) was 111 ± 10.1%. Further, the “highest possible non-cytotoxic concentration” value in the data set with L929 and VERO cell lines came to 7.81 µg/mL.

Take `Clc1ccc(-c2csc(N/N=C/C3CC3)n2)cc1` [Compound 3c, (E)-4-(4-Chlorophenyl)-2-(2-(cyclopropylmethylene)hydrazinyl)thiazole]: the minimal fungicidal concentration (MFC) was 0.48 µg/mL (≈ 1.73 µM) in data set [1] (setting [6]), 1.95 µg/mL (≈ 7.02 µM) in data set [2] (setting [8]), 0.98 µg/mL (≈ 3.53 µM) in data set [3] (setting [10]) and 0.24 µg/mL (≈ 0.864 µM) in data set [4] (setting [12]). The minimum inhibitory concentration (MIC) in data set [1] (setting [7]) is 0.12 µg/mL (≈ 0.432 µM); in data set [2] (setting [9]) it was 0.48 µg/mL (≈ 1.73 µM); in data set [3] (setting [11]), 0.12 µg/mL (≈ 0.432 µM); in data set [4] (setting [13]), 0.12 µg/mL (≈ 0.432 µM). Also, the activity at 0.98 µg/mL in data set [5] (setting [14]) was determined as 106.78 ± 0.02%. For the same molecule, in data set [5] (setting [14]), the activity at 1.95 µg/mL amounted to 108 ± 4.34%. For the same molecule, the activity at 3.91 µg/mL in data set [5] (setting [14]) amounted to 114 ± 6.65%. The “highest possible non-cytotoxic concentration” value in the data set on L929 and VERO cell lines turned out to be 7.81 µg/mL.

For the molecule `FC(F)(F)c1ccc(-c2csc(N/N=C/C3CC3)n2)cc1` [Compound 3e, (E)-2-(2-(Cyclopropylmethylene)hydrazinyl)-4-(4-(trifluoromethyl)phenyl)thiazole], in data set [5] (setting [14]), the activity at 0.98 µg/mL turned out to be 94.4 ± 6.92%, the activity at 1.95 µg/mL is 100 ± 2.25% and the activity at 3.91 µg/mL came out at 110 ± 4.37%. Moreover, the “highest possible non-cytotoxic concentration” value with L929 and VERO cell lines turned out to be 3.91 µg/mL.

Turning to `C[C@@H]1[C@H](O)[C@@H](C)/C=C/C=C/CC/C=C/C=C/C=C/C=C/C(O[C@H]2O[C@H](C)[C@@H](O)[C@H](N)[C@@H]2O)CC2O[C@](O)(CC(O)C(O)CCC(O)CC(O)CC(O)CC(=O)O[C@H]1C)CC(O)C2C(=O)O` (some centres unmarked) [Nystatin, reference compound], the MFC in data set [1] stood at 0.24 µg/mL (≈ 0.259 µM); in data set [2] it was 0.48 µg/mL (≈ 0.518 µM); in data set [3] it was 0.24 µg/mL (≈ 0.259 µM); in data set [4], 0.48 µg/mL (≈ 0.518 µM). The MFC/MIC came out at 1 in data set [1], 2 in data set [2], 1 in data set [3] and 1 in data set [4]. In addition, the MIC in data set [1] turned out to be 0.24 µg/mL (≈ 0.259 µM); in data set [2], 0.24 µg/mL (≈ 0.259 µM); in data set [3] it was 0.24 µg/mL (≈ 0.259 µM); in data set [4] it was 0.48 µg/mL (≈ 0.518 µM).

By MFC is commonly meant the lowest tested concentration that kills the fungus rather than only halting it. Broadly, the MIC is the smallest concentration in the dilution series that meets the test's criterion for growth inhibition. For orientation: IC50 means the concentration needed to halve the response being measured.
